One experiment deals with E. faecalis isolates. In words: Minimal inhibitory concentration of antibacterial agents, "Eiken" DP42 dry plate. The format is cell-based, Enterococcus faecalis. The settings on record: for MIC: Enterococcus faecalis, read-out: Minimal inhibitory concentration; for Sensitivity of strains to antibacterial agent: all E. faecalis strains (11 strains). As to the method:
(§1) The sensitivity to an antibacterial agent for each of the above-described 30 Enterococcus bacterial strains was invenstigated. Specifically, the bacterial strains prepared in 1 McFarland standard with physiological saline were diluted 500-fold with a BHI culture medium, and then aerobically cultured in solid-phase wells of an “Eiken” DP42 dry plate (Eiken Chemical Co., Ltd., Tokyo, Japan) for 24 hours.
(§2) The minimal inhibitory concentration of any one of the antibacterial agents, i.e., daptomycin (DAP), vancomycin (VCM), teicoplanin (TEIC), and linezolid (LZD), was determined in accordance with the instruction of the product. […] The results obtained by testing resistance to the antibacterial agents of the E. faecalis strains (11 strains) are shown in Table 1 below.

The test system of another experiment is E. faecium isolates. Described as above. The experiment is classed as cell-based, Enterococcus faecium. The settings on record: all E. faecium (19 strains). As to the method: as §1, §2
Where [1] appears, read: E. faecalis strain OCU009_35_10.
The mark [2] stands for this setting: E. faecalis strain OCU031_pre_6.
The mark [3] stands for this setting: E. faecalis strain OCU031_pre_7.
Setting [4] is: E. faecalis strain OCU031_pre_10.

Converted amounts (≈) assume the structure as drawn.

Take `CC(=O)NC[C@H]1CN(c2ccc(N3CCOCC3)c(F)c2)C(=O)O1` [linezolid]: the Minimal inhibitory concentration in the experiment with E. faecalis isolates (E. faecalis strain OCU009_35_4), with E. faecalis isolates (setting [1]), in the experiment on E. faecalis isolates (E. faecalis strain OCU015_56_6), in the experiment with E. faecalis isolates (E. faecalis strain OCU031_7_1), in the experiment on E. faecalis isolates (E. faecalis strain OCU031_7_9) and in the experiment on E. faecalis isolates (E. faecalis strain OCU031_14_5) was 2 µg/mL (≈ 5.93 µM) in each case. Further, the Minimal inhibitory concentration with E. faecalis isolates (E. faecalis strain OCU031_14_8), with E. faecalis isolates (setting [2]), with E. faecalis isolates (setting [3]) and with E. faecalis isolates (setting [4]) was 2 µg/mL (≈ 5.93 µM) each time. The MIC with E. faecalis isolates (E. faecalis strain OCU015_56_7) was found to be 2 µg/mL (≈ 5.93 µM). Also, the “Sensitivity of strains to antibacterial agent” value (from here on “Sensitivity of strains”) in the experiment with E. faecalis isolates and with E. faecium isolates was “exhibited sensitivity” throughout.

Regarding teicoplanin, the Minimal inhibitory concentration in the experiment on E. faecalis isolates (E. faecalis strain OCU009_35_4) turned out to be 1 µg/mL; in the experiment with E. faecalis isolates (setting [1]), 2 µg/mL; in the experiment on E. faecalis isolates (E. faecalis strain OCU015_56_6) it was 0.5 µg/mL; in the experiment on E. faecalis isolates (E. faecalis strain OCU015_56_7) it was 0.5 µg/mL; in the experiment on E. faecalis isolates (E. faecalis strain OCU031_7_1), 2 µg/mL; in the experiment with E. faecalis isolates (E. faecalis strain OCU031_7_9), 2 µg/mL. In addition, the Minimal inhibitory concentration with E. faecalis isolates (E. faecalis strain OCU031_14_5), with E. faecalis isolates (E. faecalis strain OCU031_14_8), with E. faecalis isolates (setting [2]), with E. faecalis isolates (setting [3]) and in the experiment on E. faecalis isolates (setting [4]) was 1 µg/mL each time. Also, the “Sensitivity of strains” value with E. faecalis isolates and in the experiment with E. faecium isolates was “exhibited sensitivity” each time.

Take `CCCCCCCCCC(=O)N[C@@H](Cc1c[nH]c2ccccc12)C(=O)N[C@H](CC(N)=O)C(=O)N[C@@H](CC(=O)O)C(=O)N[C@@H]1C(=O)NCC(=O)N[C@@H](CCCN)C(=O)N[C@@H](CC(=O)O)C(=O)N[C@H](C)C(=O)N[C@@H](CC(=O)O)C(=O)NCC(=O)N[C@H](CO)C(=O)N[C@@H]([C@H](C)CC(=O)O)C(=O)N[C@@H](CC(=O)c2ccccc2N)C(=O)O[C@@H]1C` [daptomycin]: the Minimal inhibitory concentration in the experiment with E. faecalis isolates (E. faecalis strain OCU009_35_4), in the experiment with E. faecalis isolates (setting [1]), in the experiment with E. faecalis isolates (E. faecalis strain OCU015_56_6), in the experiment with E. faecalis isolates (E. faecalis strain OCU031_7_1), in the experiment on E. faecalis isolates (E. faecalis strain OCU031_7_9) and in the experiment on E. faecalis isolates (E. faecalis strain OCU031_14_5) was greater than 4 µg/mL each time. The Minimal inhibitory concentration in the experiment with E. faecalis isolates (E. faecalis strain OCU031_14_8), in the experiment with E. faecalis isolates (setting [2]), in the experiment with E. faecalis isolates (setting [3]) and in the experiment with E. faecalis isolates (setting [4]) was greater than 4 µg/mL in each case. Further, the MIC in the experiment with E. faecalis isolates (E. faecalis strain OCU015_56_7) was greater than 4 µg/mL. The “Sensitivity of strains” value in the experiment with E. faecalis isolates and in the experiment on E. faecium isolates was “exhibited sensitivity” in each case.
